The results in this text go back to US9636324B2, “Use of 15-benzylidence-14-deoxy-11, 12 -dehyroandrographolide derivative in manufacture of medicaments for protecting liver and anti-hepatitis C virus” (Zhengzhou University, priority 2012, dated 2017).

SMILES strings stand for the structures.

Series [1] has as its system bovine viral diarrhea virus (BVDV-AV69). The series can be described thus: CPE observation of effects on cytopathy caused by BVDV in MDBK cells. Here is the method:
Pharmaceutical effects of drugs of the invention against cytopathy caused by inoculation of BVDV virus are investigated using MDBK (NBL-1) cells (purchased from Chinese Academy of Science's Shanghai Center for Type Culture Collection) and bovine viral diarrhea virus (BVDV-AV69) (purchased from China Institute of Veterinary Drugs Control). Ribavirin (R; Henan RunHong Pharmaceutical Co., Ltd; batch number: E0909604) is used as positive drug control. MDBK cells are prepared as a suspension (1×10^5/mL) in RPMI1640 culture medium which contains 10% in volume fetal bovine serum (Zhejiang Tianhang Biotechnology Co., Ltd; batch number: 100524), 100 μg/mL streptomycin (Shenzheng Huayao Nanfang Pharmaceutical Co., Ltd; batch number: N09081), 100 U/mL penicillin (North China Pharmaceutical Co., Ltd; batch number: E0909604), and are seeded in 96 well plates (Costar, US) at 200 μL/well, placed in an incubator (Binder, Germany) at 37° C. with 5% CO2 to culture the cell. In 24 h when cells grow into a single layer, virus solution of 100 TCID50 (TCID50=10^−2.5) is added and incubated for 1.5 h. Maintenance medium with the drug is added at 200 μL/well after 3×PBS washes.
After digestion of MDBK cells with trypsin, cells with a concentration of 1×10^5/mL are seeded into 96 well plates at 200 μL/well, placed in an incubator at 37° C. with 5% CO2 for 24 h. After growing into a single layer, cells are attacked using 100 TCID50 (TCID50=10^−2.5) virus and incubated for 1.5 h. The virus-containing maintenance medium is discarded, and cells are washed with PBS, followed by addition of drug-containing maintenance medium with different concentrations, and incubation in 5% CO2 at 37° C. Normal cell control, virus control, drug treatment and ribavirin treatment groups are set. The cytopathy developing status is recorded everyday by observing under an inverted microscope.

Another series concerns MDBK (NBL-1) cells. Put plainly: MTT assay for cytotoxicity. The format is cell-based, bovine. Here is the method: The drug-containing medium is added and further incubated for 48 h. MTT is added (5 mg/mL) at 20 μL/well and cultured for 4 h, the supernatant is discarded and 150 μL DMSO is added, then the plate is shaken for 10 minutes and the absorbance is determined using a microplate reader using the wavelength 570 nm and a reference wavelength 450 nm. The cell survival rate is calculated after treatment of compounds: cell survival rate (%)=drug group A value/cell control group A value×100%, and the results are shown in FIG. 10. Cell proliferation inhibition rate (%)=100%−survival rate (%), half maximal (50%) toxic concentration (TC50) is calculated according to Reed-Muench method.
(In general: Tetrazolium dyes change colour on reduction, which living cells bring about.)

Series [2] relates to mice with ConA induced liver damage. The series can be described thus: ConA induced immunological liver damage model in mice. The format is in vivo, Kunming mice. The settings on record: for ALT activity in serum compared with AD group / AST activity in serum compared with AD group: P<0.05. How it is done: Kunming mice of clean grade (male, weight 20±2 g, supplied by the Laboratory Animal Center, Henan Province) are randomly divided into groups with 6 mice in each group. Bifendate (Xinchang Pharmaceutical Factory of Zhejiang Pharmaceutical Co., Ltd, 200 mg/kg) is used as positive control, andrographolide (AD) is provided by Furen Pharmaceutical Group Co., Ltd, and the test compounds are synthesized by the inventors with purities higher than 99.0%. Normal control group and model group are intragastrically given 0.5% sodium carboxymethylcellulose (CMC-Na), and test groups are given 0.5% CMC-Na suspensions with AD (0.88 mmol/kg), and low dosage (0.66 mmol/kg) and high dosage (0.88 mmol/kg) of compound A, B and C, respectively. The drugs are given for 3 days. One hour after the last administration, all mice except those in the normal control group are injected with a single dose of ConA (20 mg/kg) through the caudal vein. After 8 h, the eyeball is enucleated to collect blood, which is centrifuged at 3000 rpm for 15 min to separate serum. ALT and AST are tested according to the kit specification, respectively (Nanjing Jiancheng Bioengineering Institute). The left lobe of liver is taken to prepare 10% homogenate using physiological saline, MDA is determined according to the kit specification (Nanjing Jiancheng Bioengineering Institute). To 50 μL liver homogenate is added 2 mL of 0.5 mol/L KOH-methanol solution and kept at 50° C. water bath to isomerize for 20 minutes, then absorbance (A value) is measured at 278 nm, using the A value per mL of homogenate to represent the PGE2 content. Experimental data are expressed as average±standard deviation (X±s), analyzed with SPSS 11.5 statistic software, with P<0.05 meaning significant difference.
Kunming mice of clean grade (male, weight 20±2 g) are randomly divided into normal group, model group, bifendate (Zhejiang Wanbang Pharmaceutical Co., Ltd) positive control group (200 mg/kg), AD group (0.88 mmol/kg), low dosage group (0.66 mmol/kg) and high dosage (0.88 mmol/kg) group of compound D. ALT, AST, and MDA assay kits are purchased from Nanjing Jiancheng Bioengineering Institute. Other agents, drugs and experimental methods are the same as in EXAMPLE 1.
In experimental investigation of both models, the following grouping method is used: Kunming mice of clean grade (male, weight 20±2 g) are randomly divided into normal group, model group, bifendate group (200 mg/kg), AD group (0.88 mmol/kg), low dosage group (0.66 mmol/kg) and high dosage group (0.88 mmol/kg) of compound E, with 8 mice in each group. Other agents, drugs and experimental methods are the same as in EXAMPLE 1 and in EXAMPLE 4, respectively.

The subject of series [3] is mice with carbon tetrachloride induced liver damage. The series can be described thus: Carbon tetrachloride induced chemical liver damage model in mice. Conditions: for ALT activity in serum vs model group / AST activity in serum vs model group: P<0.01. The format is in vivo, Kunming mice. Here is the method:
Kunming mice of clean grade (male, weight 20±2 g), after adaptively fed for 3 days, are randomly divided into normal group, model group, bifendate positive control group (200 mg/kg), AD group (0.88 mmol/kg), low dosage group (0.66 mmol/kg) and high dosage group (0.88 mmol/kg) of compound A, B, C and D, with 8 mice in each group. Positive group and each test group are intragastrically given with respective suspension prepared with 0.5% CMC-Na, and normal group and model group are given with 0.5% CMC-Na. The drugs are given for 3 days, and 1 h after the last administration, all mice except those in the normal group are intraperitoneally injected with a single dose of 0.3% carbon tetrachloride in peanut oil (0.1 mL/10 g). After 16 h, the eyeball of the mice in each group is enucleated to collect blood, which is centrifuged at 3000 rpm for 15 min to separate serum. ALT and AST activities are tested respectively (Nanjing Jiancheng Bioengineering Institute). The left lobe of liver is taken to prepare 10% homogenate using physiological saline, MDA (Nanjing Jiancheng Bioengineering Institute) and PGE2 contents are determined. Experimental data are expressed as average±standard deviation (X±s), analyzed with SPSS 11.5 statistic software, with P<0.05 meaning there is a significant difference. Other agents, drugs and experimental methods are the same as in EXAMPLE 1. In experimental investigation of both models, the following grouping method is used: Kunming mice of clean grade (male, weight 20±2 g) are randomly divided into normal group, model group, bifendate group (200 mg/kg), AD group (0.88 mmol/kg), low dosage group (0.66 mmol/kg) and high dosage group (0.88 mmol/kg) of compound E, with 8 mice in each group. Other agents, drugs and experimental methods are the same as in EXAMPLE 1 and in EXAMPLE 4, respectively.

[4] abbreviates: high dosage 0.88 mmol/kg vs AD 0.88 mmol/kg.
Where [5] appears, read: high dosage 0.88 mmol/kg, P<0.01.
[6] abbreviates: low dosage 0.66 mmol/kg vs AD 0.88 mmol/kg.
Setting [7] is: low dosage 0.66 mmol/kg, P<0.05 (D), P<0.01 (E).
The mark [8] stands for this setting: high dosage 0.88 mmol/kg vs AD 0.88 mmol/kg, P<0.05.

For `C=C1CCC2C(C)(COC(=O)CCC(=O)O)C(OC(=O)CCC(=O)O)CCC2(C)C1C=CC1=CC(=Cc2ccc(Cl)cc2)OC1=O` (stereo not drawn) [Compound E], in series [1] (BVDV in MDBK cells), the “antiviral effect compared with AD” value is “better antiviral effect than AD”. Moreover, in series [1] (BVDV in MDBK cells), the “pharmaceutical effect against cytopathy caused by virus compared with ribavirin” value was “better than ribavirin”. Further, in series [1] (MDBK cells, BVDV-AV69, TC50 from MTT, IC50 from CPE), the “TI value (therapy index, TC50/IC50)” value is reported as over 250. For the same compound, the “cytotoxicity to MDBK cells” value with MDBK (NBL-1) cells (0-7.5 μmol/L, 48 h) is on record as “do not show obvious cytotoxcity”; with MDBK (NBL-1) cells (30 μmol/L), “shows no cytotoxcity”. The “ALT activity in serum compared with AD group” value in series [2] (setting [4]) and in series [2] (setting [6]) was “notably lower than AD group” in each case. Further, the “AST activity in serum compared with AD group” value in series [2] (setting [4]) and in series [2] (setting [6]) was “notably lower than AD group” in each case. The “ALT activity in serum vs model group” value in series [2] (setting [5]), in series [2] (setting [7]), in series [3] (high dosage 0.88 mmol/kg) and in series [3] (low dosage 0.66 mmol/kg) was “notably decrease” throughout. The “AST activity in serum vs model group” value in series [2] (setting [5]), in series [2] (setting [7]), in series [3] (high dosage 0.88 mmol/kg) and in series [3] (low dosage 0.66 mmol/kg) was “notably decrease” each time. For the same compound, the “protective effect against liver damage induced by ConA (summary)” value in series [2] (mice, intragastric, 3 days) is recorded as “significant protective effect”. Moreover, in series [3] (setting [8]), the “magnitude of decrease in ALT activity compared to AD group” value was “notably lower”. Moreover, the “magnitude of decrease in AST activity compared to AD group” value in series [3] (setting [8]) is given as “notably lower”. Besides, the “protective effect against liver damage induced by carbon tetrachloride (summary)” value in series [3] (mice, intragastric, 3 days) is recorded as “significant protective effect”.
